Reference: patent US20250382588A1, “CHIMERIC AAV AND USES THEREOF” (priority 2023, published 2025)
Entries after “also recorded” stand apart in the source; their conditions may differ.

What was measured:
[1] = system: parkinsonian macaque model (MPP+); settings: clinical; cited from earlier work
[2] = system: parkinsonian macaque model (MPP+); assay: Parkinsonian symptoms in MPP+ macaques (PD score, locomotion, EMG tremor, motor skill, dyskinesia score)
Experimental: Parkinsonian conditions in macaque monkeys were established by unilaterally injecting 1-Methyl-4-phenylpyridinium (MPP+) into the SNc (FIG. 14). […] Drug injections were performed in five sites covering the whole SNc. A total volume of 10 ul MPP+ was injected into SNc at a speed of 50 nL/min. Monkeys were continuously monitored by veterinarians after lesion.
Two experienced observers blindly evaluated parkinsonian symptoms of the monkeys three days per week throughout the observation periods. Parkinsonian symptoms were quantified according to the well-established Kurlan scale (Part I. Parkinsonian features), a widely used scale to quantify PD symptoms in old world monkeys. A score of zero indicates a normal monkey, whereas a maximum score of 29 indicates an animal with severe PD symptoms. For separate behavioral categories, scoring of the upper limb and the lower limb were added together. Additionally, action or intention tremors and resting tremors were added together.
Two experienced observers blindly evaluated dyskinesia symptoms of the monkeys three days per week throughout the observation periods. Dyskinesia score criteria were: 0: Absent. 1: Mild, fleeting, present <30% of the observation period. 2: Moderate, not interfering with normal activity, present >30% of the observation period. 3: Marked, at times interfering with normal activity; present <70% of the observation period.4: Severe, continuous, replacing normal activity, present >70% of the observation.
For parkinsonian monkeys, DCZ (Deschloroclozapine, 0.3 mg/kg, MCE) was administered via intramuscular injection. After DCZ was successfully infused, monkeys were immediately transferred to the observation cage for video recording. […] For long-term DCZ treatment, parkinsonian monkeys were given DCZ at a dose of 0.3 mg/kg every other day via intramuscular injection. […] One month of washout was allowed before administration of DCZ for a 2 months treatment.
A grasp-to-eat/hand-to-mouth movement test was conducted as an indication of motor skills in monkeys. Monkeys were first trained to sit in a primate chair with the healthy hand restricted. Monkeys were then trained to grasp food (a piece of apple, ˜1 cm3) using the MPP+-affected hand from the experimenter. The task contained three blocks, with 20-minute intervals between different blocks. Each block included ten continuous trials. Trials were defined as successful when monkeys were able to bring food to their mouth within a minute.
During video recording, a top (x/y) and a side (x/z) camera were used to record the observation cage. The VigiePrimate system (Viewpoint) was used to analyze the subject's activity and extract movement data from the recorded videos. The tracking data were synchronously sampled at 25 Hz for both top view and side view, and then combined to generate one dataset representing the 3D space. The tracking data were normalized to 0-100 cm for all x-, y-, and z-axes, of which x represents right to left, y represents front to back, and z represents bottom to top.
Customized surface EMG electrodes were used for EMG recordings.

N[C@@H](Cc1ccc(O)c(O)c1)C(=O)O [L-Dopa, levodopa]
standard efficacy window [1]: 6 h
dyskinesia-like behaviors (dyskinesia score) ([2]; long-term treatment): evident; also recorded: pronounced
effect of 4 months prior L-Dopa administration on DCZ treatment ([2]; one month washout): did not affect the efficacy of DCZ treatment or the absence of dyskinesia
